Numbers after ± are expanded uncertainties.
Key:
[1] = Crystal; visual observation
[2] = wn = mass fraction of the nth substance listed; conditions: 101 kPa, Liquid; for viscosity: Capillary tube (Ostwald / Ubbelohde) method; for mass density: Pycnometric method

Compound: [Br-].[Br-].c1cc[n+](CCCCC[n+]2ccccc2)cc1 [1,1'-(pentane-1,5-diyl)-bis(pyridinium) dibromide]
- Normal melting temperature [1]: 198.00 ± 2.9 °C

Compound: CCO [ethanol] + O
- viscosity ([2]; 293.15 K, w1 = 0.1): 1.538 ± 0.034 mPa·s
- viscosity ([2]; 293.15 K, w1 = 0.2): 2.183 ± 0.05 mPa·s
- viscosity ([2]; 293.15 K, w1 = 0.3): 2.701 ± 0.064 mPa·s
- viscosity ([2]; 293.15 K, w1 = 0.4): 2.91 ± 0.071 mPa·s
- viscosity ([2]; 293.15 K, w1 = 0.5): 2.87 ± 0.074 mPa·s
- mass density ([2]; 293.15 K, w1 = 0.1): 981.8 ± 0.6 kg/m3
- mass density ([2]; 293.15 K, w1 = 0.2): 968.2 ± 0.8 kg/m3
- mass density ([2]; 293.15 K, w1 = 0.3): 953.6 ± 1.1 kg/m3
- mass density ([2]; 293.15 K, w1 = 0.4): 935.5 ± 1.4 kg/m3
- mass density ([2]; 293.15 K, w1 = 0.5): 913.9 ± 1.8 kg/m3
- viscosity ([2]; 303.15 K, w1 = 0.1): 1.16 ± 0.026 mPa·s
- viscosity ([2]; 303.15 K, w1 = 0.2): 1.553 ± 0.035 mPa·s
- viscosity ([2]; 303.15 K, w1 = 0.3): 1.87 ± 0.044 mPa·s
- viscosity ([2]; 303.15 K, w1 = 0.4): 2.02 ± 0.05 mPa·s
- viscosity ([2]; 303.15 K, w1 = 0.5): 2.022 ± 0.052 mPa·s
- mass density ([2]; 303.15 K, w1 = 0.1): 979 ± 0.6 kg/m3
- mass density ([2]; 303.15 K, w1 = 0.2): 964.1 ± 0.9 kg/m3
- mass density ([2]; 303.15 K, w1 = 0.3): 947.4 ± 1.1 kg/m3
- mass density ([2]; 303.15 K, w1 = 0.4): 927.2 ± 1.4 kg/m3
- mass density ([2]; 303.15 K, w1 = 0.5): 905.6 ± 1.8 kg/m3
- viscosity ([2]; 313.15 K, w1 = 0.1): 0.9068 ± 0.02 mPa·s
- viscosity ([2]; 313.15 K, w1 = 0.2): 1.16 ± 0.027 mPa·s
- viscosity ([2]; 313.15 K, w1 = 0.3): 1.368 ± 0.032 mPa·s
- viscosity ([2]; 313.15 K, w1 = 0.4): 1.482 ± 0.037 mPa·s
- viscosity ([2]; 313.15 K, w1 = 0.5): 1.499 ± 0.039 mPa·s
- mass density ([2]; 313.15 K, w1 = 0.1): 974.6 ± 0.6 kg/m3
- mass density ([2]; 313.15 K, w1 = 0.2): 958.7 ± 0.9 kg/m3
- mass density ([2]; 313.15 K, w1 = 0.3): 940.3 ± 1.1 kg/m3
- mass density ([2]; 313.15 K, w1 = 0.4): 919.8 ± 1.4 kg/m3
- mass density ([2]; 313.15 K, w1 = 0.5): 897.6 ± 1.7 kg/m3

From the NIST ThermoML archive (doi:10.1021/je900743e)
